Results from publication PMC9090415, “Discovery of small molecule inhibitors of Plasmodium falciparum apicoplast DNA polymerase” (Journal of Enzyme Inhibition and Medicinal Chemistry, 2022).

Target: P. falciparum apicoplast DNA polymerase (Pf-apPOL) (Plasmodium falciparum, UniProt Q8ILY1)
Test: Fluorescence-based high-throughput DNA polymerase assay (molecular beacon), primary screen and dose-response
Assay type: biochemical
Settings: for DNA Pol: 90 min, 10 µM
Method: The HT assay employs a molecular beacon, a stem-loop DNA template with a Cy3 dye and the Black Hole Quencher on the 3′ and 5′ ends of the DNA, respectively. Pf-apPOL concentration is based on a calculated absorptivity of ε280 = 56750 M^−1 cm^−1. Reactions were carried out at 25 °C, using Corning 3575 […] (well-volume, 20 µL). Assays testing for compound inhibition composed of reaction buffer (pH 7.9 in 50 mM potassium acetate, 20 mM Tris-acetate and 10 mM magnesium acetate), Pf-apPOL (20 nM), DNA substrate (20 nM), dNTPs (6 µM), and compound (10 µM in DMSO). The DNA and nucleotide substrates (dNTPs) were at concentrations of 20 nM and 6 µM, respectively, in the assay. Pf-apPOL was incubated in the reaction buffer with dNTPs and the compound of interest (10 µM, in the assay) at 25 °C for 10 min. The DNA substrate was then added and the reaction was allowed to proceed for 90 min at 25 °C.
Each assay plate contained 16 negative controls (no Pf-apPOL, DMSO present) and 16 positive controls (Pf-apPOL present, no DMSO). The fluorescence of each well was determined using a BioTek Synergy Neo fluorescence plate reader using excitation and emission wavelengths of 555 and 570 nm, respectively.
In the above, Min is the average of fluorescence emission of the negative controls (substrate only), Max the average fluorescence emission from the positive controls (enzyme + substrate), and Test the emission from the assays in the presence of compounds (enzyme + compound + substrates). […] […] The IC50 of each compound was determined using Equation (2): (2) IC50= Vmax/(1+ (I/IC50)^n)
In the above, n measures cooperativity, with n > 1 indicating synergistic binding of more than a single molecule of the compound.
To identify apPOL inhibitors we utilised our previously developed high-throughput DNA polymerase assay. The HT assay is based on a molecular beacon DNA template that forms a stem-loop with a Cy3 dye and the Black Hole Quencher on the 3′ and 5′ ends of the DNA, respectively. DNA polymerase activity extends an annealed primer through the stem region, displacing the fluorophore from the quencher, thereby increasing its fluorescence (Figure 1(A)). The assay accurately recapitulates the kinetic behaviour of apPOL, as measured through more conventional low-throughput gel-based assays. The Z′ factor for the assay described here was 0.9 across all plates (data not shown).
Figure 1. High-throughput screening. (A) The fluorescent-based DNA polymerase assay used to screen the compound libraries. The DNA template strand is a hairpin loop with a primer annealed to the loop. The 3’ end of the primer is 11 bases away from the 6 bp duplex. Strand displacement activity of the DNA polymerase separates the Cy3 dye from the Black hole quencher leading to an increase in fluorescent signal. (B) The high-throughput assay workflow. The DNA polymerase is incubated with […] compound for 10 min prior to addition of the hairpin substrate. The reaction is quenched at 3 different time points and the fluorescent signal is measured and % inhibition is determined using the provided equation.

Chain of P. falciparum apicoplast DNA polymerase (Pf-apPOL) (Q8ILY1 entry or part of it): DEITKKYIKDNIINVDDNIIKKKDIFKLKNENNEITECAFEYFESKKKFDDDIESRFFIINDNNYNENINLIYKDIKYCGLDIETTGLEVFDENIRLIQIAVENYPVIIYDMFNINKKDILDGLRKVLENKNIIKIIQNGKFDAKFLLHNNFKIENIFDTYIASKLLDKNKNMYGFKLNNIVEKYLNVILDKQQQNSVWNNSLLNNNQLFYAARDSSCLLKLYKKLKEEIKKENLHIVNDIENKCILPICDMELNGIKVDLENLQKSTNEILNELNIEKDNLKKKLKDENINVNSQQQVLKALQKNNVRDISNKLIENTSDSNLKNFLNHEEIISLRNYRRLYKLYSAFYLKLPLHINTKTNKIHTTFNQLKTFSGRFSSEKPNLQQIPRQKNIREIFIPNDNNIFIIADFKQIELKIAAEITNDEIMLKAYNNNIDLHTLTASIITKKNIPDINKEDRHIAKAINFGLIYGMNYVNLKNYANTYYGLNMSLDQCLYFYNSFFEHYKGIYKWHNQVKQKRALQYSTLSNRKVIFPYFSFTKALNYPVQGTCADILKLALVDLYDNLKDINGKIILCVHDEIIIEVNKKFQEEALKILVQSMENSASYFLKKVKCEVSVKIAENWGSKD

## N#CC(C#N)=C1SCN(c2cccc(Cl)c2)CS1 [Molecule 29, N#CC(=C1SCN(CS1)c1cccc(c1)Cl)C#N]
'DNA Pol' of the 186 hits list (screen value)
  DNA Pol: 95
DRC-1, conc 2.5
  % inhibition Apo pol 10': 21.8228%
  % inhibition Apol 90': 12.5059%
  % inhibition apPOL 180': 2.521%
DRC-1, conc 5
  % inhibition Apo pol 10': 35.73%
  % inhibition Apol 90': 27.1845%
  % inhibition apPOL 180': 13.8215%
DRC-1, conc 10
  % inhibition Apo pol 10': 36.478%
  % inhibition Apol 90': 28.2977%
  % inhibition apPOL 180': 15.4746%
DRC-1, conc 20
  % inhibition Apo pol 10': 90.158%
  % inhibition Apol 90': 85.5173%
  % inhibition apPOL 180': 81.5285%
DRC-1, conc 40
  % inhibition Apo pol 10': 91.3949%
  % inhibition Apol 90': 87.9667%
  % inhibition apPOL 180': 85.2905%
DRC-1, conc 80
  % inhibition Apo pol 10': 94.8229%
  % inhibition Apol 90': 95.5447%
  % inhibition apPOL 180': 94.962%
DRC-2, conc 2.5
  % inhibition Apo pol 5': 14%
  % inhibition Apol 40': 20%
  % inhibition ApPOL 90': 17%
  % inhibition apPOL 180': 10%
DRC-2, conc 5
  % inhibition Apo pol 5': 34%
  % inhibition Apol 40': 42%
  % inhibition ApPOL 90': 41%
  % inhibition apPOL 180': 31%
DRC-2, conc 10
  % inhibition Apo pol 5': 45%
  % inhibition Apol 40': 56%
  % inhibition ApPOL 90': 56%
  % inhibition apPOL 180': 48%
DRC-2, conc 20
  % inhibition Apo pol 5': 55%
  % inhibition Apol 40': 65%
  % inhibition ApPOL 90': 66%
  % inhibition apPOL 180': 62%
DRC-2, conc 40
  % inhibition Apo pol 5': 60%
  % inhibition Apol 40': 73%
  % inhibition ApPOL 90': 75%
  % inhibition apPOL 180': 73%
DRC-2, conc 80
  % inhibition Apo pol 5': 60%
  % inhibition Apol 40': 76%
  % inhibition ApPOL 90': 79%
  % inhibition apPOL 180': 81%
DRC-2, concentration 40
  % inhibition Apo pol 5': 60%
  % inhibition Apol 40': 73%
  % inhibition apPOL 180': 73%
DRC-2, concentration 80
  % inhibition Apo pol 5': 60%
DRC-2, concentration 10
  % inhibition Apol 40': 56%
  % inhibition ApPOL 90': 56%
Primary screen value, "DNA Pol"
  DNA Pol: 95

## NC(=O)c1cc[n+](CC2=C(C(=O)O)N3C(=O)[C@@H](NC(=O)[C@@H](c4ccccc4)S(=O)(=O)[O-])[C@H]3SC2)cc1 [Molecule 9]
Supplemental file 2, sheet IC50 nontoxic compounds, Pf-apPOL
  IC50: 4.4 µM

## CC(=O)Nc1cc(C(=O)NC(C)C)c2ccc(C)nc2c1 [KU0206312]
DRC-1, concentration 2.5
  % inhibition Apo pol 10': -0.09953%
  % inhibition Apol 90': -3.317%
  % inhibition apPOL 180': -3.391%
DRC-1, concentration 5
  % inhibition Apo pol 10': 7.573%
  % inhibition Apol 90': -1.224%
  % inhibition apPOL 180': -3.035%
DRC-1, concentration 10
  % inhibition Apo pol 10': 27.7087%
  % inhibition Apol 90': 13.9494%
  % inhibition apPOL 180': 6.928%
DRC-1, concentration 20
  % inhibition Apo pol 10': 47.6334%
  % inhibition Apol 90': 30.2375%
  % inhibition apPOL 180': 18.5029%
DRC-1, concentration 40
  % inhibition Apo pol 10': 73.4276%
  % inhibition Apol 90': 59.3171%
  % inhibition apPOL 180': 47.7981%
DRC-1, concentration 80
  % inhibition Apo pol 10': 85.3418%
  % inhibition Apol 90': 84.495%
  % inhibition apPOL 180': 83.4711%
DRC-2, concentration 2.5
  % inhibition Apo pol 5': 8%
  % inhibition Apol 40': 8%
  % inhibition ApPOL 90': 6.64%
  % inhibition apPOL 180': 2%
DRC-2, concentration 5
  % inhibition Apo pol 5': 15%
  % inhibition Apol 40': 13%
  % inhibition ApPOL 90': 11%
  % inhibition apPOL 180': 5%
DRC-2, concentration 10
  % inhibition Apo pol 5': 35%
  % inhibition Apol 40': 34%
  % inhibition ApPOL 90': 31%
  % inhibition apPOL 180': 20%
DRC-2, concentration 20
  % inhibition Apo pol 5': 45%
  % inhibition Apol 40': 51%
  % inhibition ApPOL 90': 50%
  % inhibition apPOL 180': 41%
DRC-2, concentration 40
  % inhibition Apo pol 5': 47%
  % inhibition Apol 40': 65%
  % inhibition ApPOL 90': 68%
  % inhibition apPOL 180': 67%
DRC-2, concentration 80
  % inhibition Apo pol 5': 43%
  % inhibition Apol 40': 67%
  % inhibition ApPOL 90': 73%
  % inhibition apPOL 180': 78%
conc. 2.5, DRC-2
  % inhibition Apo pol 5': 8%
  % inhibition Apol 40': 8%
conc. 40, DRC-2
  % inhibition apPOL 180': 67%
conc. 80, DRC-2
  % inhibition Apol 40': 67%
Primary screen value by plate and well
  DNA Pol: 32
Primary screen value of the 186 hits, unit not given
  DNA Pol: 32
